Experimental data as given in patent publication US20050180971A1, “Cancer therapy” (priority 2002, published 2005).
“And” between values parts separate entries of the source, which are not always exact repeats. Identical values can stand only once.

Test system: AE 17 cells
Assay: Murine mesothelioma model: subcutaneous AE 17 tumor challenge, tumor area by callipers
Format: in vivo, C57/B16 mice
From the text: Malignant mesothelioma in humans is an asbestos induced, incurable tumor that has a particularly poor prognosis. Average time from diagnosis to death being only eight months (Musk and Woodward, 1982). A murine model was developed by researchers in the Department of Medicine at the University of Western Australia to further the development of suitable interventions (Davies et al., 1992).
Day 0 was defined as the day of tumor cell inoculation with 1×10^6 AE 17 cells subcutaneously. The AE 17 tumor cell line was derived from C57/B16 mice and inoculated back into the same strain. This point will be referred to as a tumor challenge henceforth. Three groups of 5 mice were all challenged in this way. Subsequently the first of the groups was given a single ip dose of vinblastine (Vb) at 6 mg/kg body weight exactly 14 days post tumor challenge (Vb 19/11/01 group). The second group of 5 mice were similarly treated the next day; 15 days post tumor challenge (Vb 20/11/01). The third group received no Vb treatment (No treatment/control group).
Tumor measurements were taken from Day 14 onwards with callipers (2 diameters at right angles to each other in mm's). These two diameters are then multiplied together to give a mm^2 value that is known from past experience to correlate well with both tumor volume and tumor mass.

[1] = single ip Vb 6 mg/kg on day 14 post tumor challenge, measured day 14 (19-Nov)
[2] = single ip Vb 6 mg/kg on day 14 post tumor challenge, measured day 15 (20-Nov)
[3] = single ip Vb 6 mg/kg on day 14 post tumor challenge, measured day 18 (23-Nov)
[4] = single ip Vb 6 mg/kg on day 14 post tumor challenge, measured day 21 (26-Nov)
[5] = single ip Vb 6 mg/kg on day 14 post tumor challenge, measured day 24 (29-Nov)
[6] = single ip Vb 6 mg/kg on day 14 post tumor challenge, measured day 25 (30-Nov)
[7] = single ip Vb 6 mg/kg on day 14 post tumor challenge, measured day 28 (3-Dec)
[8] = single ip Vb 6 mg/kg on day 14 post tumor challenge, measured day 30 (5-Dec)
[9] = single ip Vb 6 mg/kg on day 15 post tumor challenge, measured day 14 (19-Nov), before treatment
[10] = single ip Vb 6 mg/kg on day 15 post tumor challenge, measured day 15 (20-Nov)
[11] = single ip Vb 6 mg/kg on day 15 post tumor challenge, measured day 18 (23-Nov)
[12] = single ip Vb 6 mg/kg on day 15 post tumor challenge, measured day 21 (26-Nov)
[13] = single ip Vb 6 mg/kg on day 15 post tumor challenge, measured day 24 (29-Nov)
[14] = single ip Vb 6 mg/kg on day 15 post tumor challenge, measured day 25 (30-Nov)
[15] = single ip Vb 6 mg/kg on day 15 post tumor challenge, measured day 28 (3-Dec)
[16] = single ip Vb 6 mg/kg on day 15 post tumor challenge, measured day 30 (5-Dec)

Compound: CC[C@]1(O)C[C@@H]2CN(CCc3c([nH]c4ccccc34)[C@@](C(=O)OC)(c3cc4c(cc3OC)N(C)[C@H]3[C@@](O)(C(=O)OC)[C@H](OC(C)=O)[C@]5(CC)C=CCN6CC[C@]43[C@@H]65)C2)C1 [Vb, vinblastine]
- mice with significant tumor development (Vb treatment day 15 post challenge): 4/5
- protection from tumor development (single Vb treatment day 14 post challenge): heavily protected from tumor development
- effectiveness (single Vb treatment day 14 post challenge, 5 mice): 80%
- Tumor area (2 diameters multiplied), individual animal (single ip Vb 6 mg/kg on day 14 post tumor challenge, measured (7-Dec)): 0 mm^2 (4×) and 70 mm^2
- Tumor area (2 diameters multiplied), individual animal [1]: 4 mm^2 (4×) and 0.5 mm^2
- Tumor area, group mean [1]: 3.3 mm^2
- Tumor area (2 diameters multiplied), individual animal [2]: 0.5 mm^2 (3×) and 0 mm^2 (2×)
- Tumor area, group mean [2]: 0.3 mm^2
- Tumor area (2 diameters multiplied), individual animal [3]: 0 mm^2 (2×) and 2 mm^2 and 1 mm^2 and 0.5 mm^2
- Tumor area, group mean [3]: 0.7 mm^2
- Tumor area (2 diameters multiplied), individual animal [4]: 0.5 mm^2 (2×) and 1 mm^2 and 0 mm^2 (2×)
- Tumor area, group mean [4]: 0.4 mm^2
- Tumor area (2 diameters multiplied), individual animal [5]: 0 mm^2 (3×) and 6 mm^2 and 4 mm^2
- Tumor area, group mean [5]: 2 mm^2
- Tumor area (2 diameters multiplied), individual animal [6]: 0 mm^2 (3×) and 1 mm^2 and 0.5 mm^2
- Tumor area, group mean [6]: 0.3 mm^2
- Tumor area (2 diameters multiplied), individual animal [7]: 0 mm^2 (3×) and 0.5 mm^2 and 40 mm^2
- Tumor area, group mean [7]: 8.1 mm^2
- Tumor area (2 diameters multiplied), individual animal [8]: 0 mm^2 (4×) and 70 mm^2
- Tumor area, group mean [8]: 14 mm^2
- Tumor area, group mean (single ip Vb 6 mg/kg on day 14 post tumor challenge, measured day 32 (7-Dec)): 14 mm^2
- Tumor area (2 diameters multiplied), individual animal (single ip Vb 6 mg/kg on day 15 post tumor challenge, measured (7-Dec)): 81 mm^2 and 0.5 mm^2 and 90 mm^2 (2×)
- Tumor area (2 diameters multiplied), individual animal [9]: 0.5 mm^2 (3×) and 4 mm^2 and 9 mm^2
- Tumor area, group mean [9]: 2.9 mm^2
- Tumor area (2 diameters multiplied), individual animal [10]: 1 mm^2 and 0.5 mm^2 (3×) and 0 mm^2
- Tumor area, group mean [10]: 0.5 mm^2
- Tumor area (2 diameters multiplied), individual animal [11]: 4 mm^2 and 0.5 mm^2 (2×) and 0 mm^2 (2×)
- Tumor area, group mean [11]: 1 mm^2
- Tumor area (2 diameters multiplied), individual animal [12]: 9 mm^2 and 0.5 mm^2 (3×) and 8 mm^2
- Tumor area, group mean [12]: 3.7 mm^2
- Tumor area (2 diameters multiplied), individual animal [13]: 16 mm^2 and 0.5 mm^2 and 25 mm^2 and 12 mm^2
- Tumor area, group mean [13]: 13.4 mm^2
- Tumor area (2 diameters multiplied), individual animal [14]: 20 mm^2 and 0.5 mm^2 and 30 mm^2 and 25 mm^2
- Tumor area, group mean [14]: 18.9 mm^2
- Tumor area (2 diameters multiplied), individual animal [15]: 42 mm^2 and 0.5 mm^2 and 56 mm^2 and 90 mm^2
- Tumor area, group mean [15]: 47.1 mm^2
- Tumor area (2 diameters multiplied), individual animal [16]: 56 mm^2 and 0.5 mm^2 and 90 mm^2 (2×)
- Tumor area, group mean [16]: 59.1 mm^2
- Tumor area, group mean (single ip Vb 6 mg/kg on day 15 post tumor challenge, measured day 32 (7-Dec)): 65.4 mm^2
